Among the data in patent publication US11161819B2, “Substituted tetrahydroisoquinoline compounds useful as GPR120 agonists” (Merck Sharp & Dohme Corp., priority 2016, dated 2021) are EC50 values, retold here.

The test concerns the target T1, human GPR120 (Homo sapiens, UniProt Q5NUL3).
T1 construct: expressed in transfected cells
T1 sequence (Q5NUL3 1-361): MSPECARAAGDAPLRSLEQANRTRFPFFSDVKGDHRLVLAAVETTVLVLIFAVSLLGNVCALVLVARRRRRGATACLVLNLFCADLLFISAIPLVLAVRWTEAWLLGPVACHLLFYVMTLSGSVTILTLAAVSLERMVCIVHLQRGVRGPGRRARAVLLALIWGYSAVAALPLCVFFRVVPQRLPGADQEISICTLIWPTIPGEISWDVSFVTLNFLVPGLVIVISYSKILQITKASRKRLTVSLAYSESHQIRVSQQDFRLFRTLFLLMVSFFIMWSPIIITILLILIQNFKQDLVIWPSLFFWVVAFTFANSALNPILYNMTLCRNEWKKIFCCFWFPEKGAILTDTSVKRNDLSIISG
Kind of test: Human GPR120 IP1 Assay (inositol phosphate turnover, CisBio IP-One kit). To be noted: IP1 accumulation in CHO-K1 cells stably expressing the short form of human GPR120; 60 min compound incubation; 4-parameter fit; read-out: hGPR120 EC50. It is filed as cell-based. From the text:
Human GPR120 IP1 Assay Principle
The binding of small molecule agonists to the G-protein-coupled receptor GPR120 activates phospholipase C, and leads to the generation of inositol 1,4,5-trisphosphate (InsP3 or IP3). IP3 is subsequently de-phosphorylated to IP1, which accumulates in cells and is stable in the presence of lithium chloride.
In the present method, agonist-induced activation of the human GPR120 receptor was monitored by measuring the accumulation of IP1 in CHO-K1 cells that were stably expressing the short form of human GPR120 (Accession #NM_001195755). Following agonist addition, GPR120 activation and subsequent accumulation of IP1 was measured using a homogeneous Time Resolved Fluorescence-based ELISA commercially available from CisBio (IP-one ELISA Kit). The IP-One ELISA was a competitive immunoassay which uses IP1 labeled with […] and a terbium cryptate-labeled anti-IP1 monoclonal antibody. […] The signal loss was then back calculated to IP1 concentration using an IP1 standard curve. Determination of IP1 concentration was a direct measure of GPR120 activation and was used to determine compound potency (EC50).
Generation of GPR120-Expressing Cells:
Human GPR120 stable cell-lines were generated in CHO cells. The expression plasmids were transfected using lipofectamine (Life Technologies) following manufacturer's instructions. Stable cell-lines were generated following drug selection and single cell cloning.
Inositol Phosphate Turnover (IP1) Assay:
The assay was performed in 384-well format. CHO cells stably expressing human GPR120 were plated at […] per well in growth medium (DMEM/F12, 10% fetal calf serum). Cell plates were then incubated 16 hours at 37 degrees in a 5% CO2 incubator. Measurement of Inositol Phosphate Turnover (IP1) was performed using the CisBio IP-One kit (Part number 62IPAPEB). After the 16 hour incubation, the growth media was removed by centrifugation using the BlueWasher (AusWasher GUI Ver. v1.0.1.8) Protocol #21-“Light Dry” and 10 ul of stimulation buffer (prepared as described in the kit) was added to each well. In a separate plate, compounds were diluted in DMSO (200-fold over the final concentration in the assay well) and 50 nl was acoustically transferred to the appropriate well in the assay cell plate. The plates were then incubated for 60 minutes at 37 degrees in a 5% CO2 incubator. 10 ul of detection buffer (also prepared as described in the IP-One kit) was added to each well and the plates were incubated at room temperature for 60 minutes in the dark. The plates were then read in a Perkin Elmer EnVision or equivalent reader able to measure FRET. Fluorescent ratio of emission at 665 and 620 nm was then converted to the IP1 concentration by back calculating from an IP1 standard curve prepared at the time of the assay. The data was normalized to % activity using a reference compound, and the EC50 values were determined using a standard 4-parameter fit.
Consider `N#Cc1ccc(OC(F)(F)F)cc1N1CCc2c(ccc([C@H]3C[C@@H]3C(=O)O)c2F)C1` [Example 117, (1S,2S)-2-{2-[2-cyano-5-(trifluoromethoxy)phenyl]-5-fluoro-1,2,3,4-tetrahydroisoquinolin-6-yl} cyclopropane-carboxylic acid], for which the EC50 turned out to be 0.143 µM.
Under `Cc1ccc(-n2nc(C)c(C#N)c2N2CCc3cc(CCCCC(=O)O)ccc3C2)cc1` [Example 127, 5-(2-(4-cyano-3-methyl-1-(p-tolyl)-1H-pyrazol-5-yl)-1,2,3,4-tetrahydro-isoquinolin-6-yl)pentanoic acid] stands 0.035 µM.
On to `O=C(O)[C@H]1C[C@@H]1c1ccc2c(c1F)CCN(c1cc(OC(F)(F)F)cc(Cl)c1F)C2` [Example 120, (1S,2S)-2-{2-[3-chloro-2-fluoro-5-(trifluoromethoxy)phenyl]-5-fluoro-1,2,3,4-tetrahydroisoquinolin-6-yl}cyclopropane-carboxylic acid], for which the EC50 was found to be 0.299 µM.
Take `COc1cc(OC(F)(F)F)cc(N2CCc3cc(CCC(=O)O)ccc3C2)c1F` [Example 13, 3-{2-[2-fluoro-3-methoxy-5-(trifluoromethoxy)phenyl]-1,2,3,4-tetrahydroisoquinolin-6-yl}-propanoic acid]: the EC50 was 0.018 µM.
`Cc1nn(-c2ccc(F)cc2)c(N2CCc3cc(C4CC4C(=O)O)ccc3C2)c1F` (stereo not shown) [Example 95, 2-{2-[4-fluoro-1-(4-fluorophenyl)-3-methyl-1H-pyrazol-5-yl]-1,2,3,4-tetrahydroisoquinolin-6-yl} cyclo-propanecarboxylic acid]: the concentration for a half-maximal effect (EC50) was 0.491 µM.
Under `O=C(O)CCc1ccc2c(c1F)CCN(c1c(-c3ccc(Cl)cc3)nsc1C(F)(F)F)C2` [Example 59, 3-(2-(3-(4-chlorophenyl)-5-(trifluoromethyl)isothiazol-4-yl)-5-fluoro-1,2,3,4-tetrahydroisoquinolin-6-yl)propanoic acid] stands 1.63 µM; under `COc1cc(C#N)c(N2CCc3cc(CCC(=O)O)ccc3C2)cc1OC1CCC1` [Example 42, 3-{2-[2-cyano-5-(cyclobutyloxy)-4-methoxyphenyl]-1,2,3,4-tetra-hydroisoquinolin-6-yl}propanoic acid], 0.798 µM.
Regarding `CO[C@H]1C[C@H](Oc2cc(C#N)c(F)c(N3CCc4cc(CCC(=O)O)ccc4C3)c2)C1` [Example 34, 3-(2-{3-cyano-2-fluoro-5-[(trans-3-methoxycyclobutyl)oxy]phenyl}-1,2,3,4-tetrahydroisoquinolin-6-yl)propanoic acid], the half-maximal effective concentration (EC50) is 0.184 µM.
Turning to `COc1cc(F)c(N2CCc3cc(CCC(=O)O)ccc3C2)cc1Oc1ncc(C)s1` [Example 21, 3-(2-{2-fluoro-4-methoxy-5-[(5-methyl-1,3-thiazol-2-yl)oxy]phenyl}-1,2,3,4-tetrahydroiso-quinolin-6-yl)propanoic acid], the EC50 came to 0.051 µM.
Take `Cc1ccc(-n2nc(C)c(Cl)c2N2CCc3cc(CCC(=O)O)ccc3C2)cc1` [Example 22, 3-{2-[4-chloro-3-methyl-1-(4-methylphenyl)-1H-pyrazol-5-yl]-1,2,3,4-tetrahydroisoquinolin-6-yl} propanoic acid]: the EC50 was 0.056 µM.
The value for `Cc1cnc(Oc2cc(C(F)F)c(F)c(N3CCc4cc(CCC(=O)O)ccc4C3)c2)s1` [Example 14, 3-(2-{3-(difluoromethyl)-2-fluoro-5-[(5-methyl-1,3-thiazol-2-yl)oxy]phenyl}-1,2,3,4-tetrahydro-isoquinolin-6-yl)propanoic acid] was 0.02 µM.
Under `Cc1ccc(-n2nc(C)c(C#N)c2N2CCc3cc(OCCO)ccc3C2)cc1` [Example 130, 5-(6-(2-hydroxyethoxy)-3,4-dihydroisoquinolin-2(1H)-yl)-3-methyl-1-(p-tolyl)-1H-pyrazole-4-carbonitrile] stands 0.087 µM; under `COc1cc(OC2CCC2)cc(N2CCc3cc(CCC(=O)O)ccc3C2)c1F` [Example 18, 3-{2-[5-(cyclobutyloxy)-2-fluoro-3-methoxyphenyl]-1,2,3,4-tetra-hydroisoquinolin-6-yl}propanoic acid], 0.024 µM.
As to `CO[C@H]1C[C@H](Oc2cc(F)c(F)c(N3CCc4cc([C@H]5C[C@@H]5C(=O)O)ccc4C3)c2)C1` [Example 100, (1S,2S)-2-(2-{2,3-difluoro-5-[(trans-3-methoxycyclobutyl)oxy]phenyl}-1,2,3,4-tetrahydroiso-quinolin-6-yl)-cyclopropanecarboxylic acid], the EC50 worked out at 0.251 µM.
Take `O=C(O)[C@H]1C[C@@H]1c1ccc2c(c1)CCN(c1cc(OC(F)(F)F)ccc1F)C2` [Example 88, (1S,2S)-2-{2-[2-fluoro-5-(trifluoro-methoxy)phenyl]-1,2,3,4-tetra hydroisoquinolin-6-yl}cyclo-propane carboxylic acid]: the concentration for a half-maximal effect (EC50) turned out to be 0.11 µM.
Under `N#Cc1c(F)cc(OC(F)(F)F)cc1N1CCc2cc(CCC(=O)O)ccc2C1` [Example 44, 3-{2-[2-cyano-3-fluoro-5-(trifluoro-methoxy)phenyl]-1,2,3,4-tetra-hydroisoquinolin-6-yl}propanoic acid] stands 2.36 µM; under `O=C(O)CCc1ccc2c(c1)CCN(c1cc(SC3CCC3)ncc1F)C2` [Example 26, 3-{2-[2-(cyclobutylsulfanyl)-5-fluoropyridin-4-yl]-1,2,3,4-tetrahydro-isoquinolin-6-yl}propanoic acid], 0.097 µM.
Turning to `O=C(O)CCc1ccc2c(c1)CCN(c1cc(Oc3ccccn3)cc(C(F)F)c1F)C2` [Example 2, 3-(2-(3-(difluoromethyl)-2-fluoro-5-(pyridin-2-yloxy)phenyl)-1,2,3,4-tetrahydro-isoquinolin-6-yl)propanoic acid], the EC50 was determined as 0.017 µM.
Under `O=C(O)C1CC1c1ccc2c(c1)CCN(c1cc(OC(F)(F)F)cc(Cl)c1F)C2` (stereo not shown) [Example 104, 2-{2-[3-chloro-2-fluoro-5-(trifluoro-methoxy)phenyl]-1,2,3,4-tetra-hydroisoquinolin-6-yl}cyclo-propane-carboxylic acid] stands 4.04 µM; under `Cc1ccc(-n2nc(C)c(C#N)c2N2CCc3cc(OCCCCO)ccc3C2)cc1` [Example 139, 5-[6-(4-hydroxybutoxy)-3,4-dihydro-isoquinolin-2(1H)-yl]-3-methyl-1-(4-methylphenyl)-1H-pyrazole-4-carbonitrile], 0.187 µM; under `Cc1nc(OC2CCC2)cc(N2CCc3c(ccc(CCC(=O)O)c3F)C2)c1C#N` [Example 149, 3-(2-(3-cyano-6-cyclobutoxy-2-methylpyridin-4-yl)-5-fluoro-1,2,3,4-tetrahydroisoquinolin-6-yl)propanoic acid], 0.033 µM.
`CC1c2ccc(CCC(=O)O)cc2CCN1c1cc(OC2CCC2)cc(F)c1Cl` (stereo not shown) [Example 37, 3-{2-[2-chloro-5-(cyclobutyloxy)-3-fluorophenyl]-1-methyl-1,2,3,4-tetrahydroisoquinolin-6-yl}-propanoic acid]: the EC50 was found to be 0.377 µM.
With `CC(Cc1ccc2c(c1F)CCN(c1cc(OC(F)(F)F)ccc1F)C2)C(=O)O` (stereo not shown) [Example 77, 3-{5-fluoro-2-[2-fluoro-5-(trifluoromethoxy)phenyl]-1,2,3,4-tetrahydro-isoquinolin-6-yl}-2-methyl-propanoic acid], the EC50 was 5.88 µM.
The value for `O=C(O)CCc1ccc2c(c1F)CCN(c1cc(C(F)(F)C3CCC3)ccc1F)C2` [Example 56, 3-(2-(5-(cyclobutyldifluoromethyl)-2-fluorophenyl)-5-fluoro-1,2,3,4-tetrahydro-isoquinolin-6-yl)propanoic acid] was 0.04 µM; that for `N#Cc1ccc(OC2CCC2)cc1N1CCc2c(ccc(CCC(=O)O)c2F)C1` [Example 76, 3-{2-[2-cyano-5-(cyclobutyloxy)-phenyl]-5-fluoro-1,2,3,4-tetrahydro-isoquinolin-6-yl}propanoic acid] was 0.845 µM.
